Data taken from patent US10195313B2, “Method for forming hydrogel arrays using surfaces with differential wettability” (Wisconsin Alumni Research Foundation, priority 2014, dated 2019).
Non-standard residues stand in square brackets, D forms with d. No end group written: not given here.

System: endothelial cells (HUVECs, iPSC-ECs, hESC-ECs)
Assay: endothelial cell tubule network formation (tubulogenesis) on patterned hydrogel array spots
Type: cell-based, human
Conditions: 0.067 mM to 0.267 of peptide incorporated into hydrogel arrays
Description: In this Example, a patterned hydrogel array was used to investigate endothelial cell tubule network formation (termed “tubulogenesis”) in vitro.
Specifically, patterned hydrogel arrays were composed of 8-arm, 20 kDa polyethylene glycol) functionalized with norbenene. As illustrated in the schematic shown in FIG. 13A, the patterned hydrogel arrays included hydrogel spots contained from 30 mg/mL to 60 mg/mL PEG, from 30-70% crosslinking with an MMP-degradable crosslinking peptide (KCGGPQGIWGQGCK, SEQ ID NO:35 or KCGGPQGIAGQGCK, SEQ ID NO:36) and 0.25 mM to 2 mM of a cell adhesive peptide (CRGDS, SEQ ID NO:2). Patterned hydrogel array spots were seeded with human umbilical vein endothelial cells (HUVECs), human induced pluripotent stem cell-derived endothelial cells (iPSC-ECs), and human embryonic stem cell-derived endothelial cells (hESC-ECs) in culture media containing standard growth medium for each cell type (Medium 199 and EGM-2 BULLETKIT™ (Lonza, Basel, Switzerland) for HUVECs, VASCULIFE® and VEGF LifeFactors for iPSC-ECs and hESC-ECs (Lifeline Cell Technology, Frederick, Md.)).
The hydrogel spots that contained between 36 mg/mL to 60 mg/mL PEG, 30-70% crosslinking with an MMP-degradable crosslinking peptide and 0.25 mM to 2 mM of the cell adhesive peptide supported of EC tubule formation (FIG. 13C). […]

CKDAPYEWNFDILdYdAdFdE (CKDAPYEWNFDIL[dY][dA][dF][dE]; not fully specified (residue 13))
persistence of tubule networks: enhanced
